Source: ChEMBL document CHEMBL4825668, “Discovery of Novel Pyrimidine-Based Capsid Assembly Modulators as Potent Anti-HBV Agents” (J Med Chem, 2021)

Tests used:
[1] = Metabolic stability in human liver microsomes assessed as compound remaining at […] incubated for 30 mins by LC/MS/MS analysis; type: ADME, Microsome; conditions: read-out: Stabilty
Hepatitis B virus [2] = assay: Inhibition of HBV recombinant Cp149 expressed in Escherichia coli BL21 (DE3) assessed as inhibition of capsid assembly at 0.1 uM incubated for 1 hr by immune blotting analysis relative to control
[3] = Metabolic stability in rat liver microsomes assessed as compound remaining at […] incubated for 30 mins by LC/MS/MS analysis; type: ADME, Microsome; conditions: read-out: Stabilty
[4] = Metabolic stability in mouse liver microsomes assessed as compound remaining at […] incubated for 30 mins by LC/MS/MS analysis; type: ADME, Microsome; conditions: read-out: Stabilty
[5] = Mutagenicity in Salmonella typhimurium in presence of S9 fraction by Ames test; type: toxicity, subcellular; conditions: salmonella enterica subsp. enterica serovar typhimurium
Hepatitis B virus [6] = assay: Antiviral activity against Human hepatitis B virus in Huh-7 cells assessed as reduction in intracellular viral DNA level incubated for 36 hrs by qPCR analysis; type: functional, organism-based; conditions: Huh-7, 36 h
hERG (KCNH2) = hERG (KCNH2) (Homo sapiens, UniProt Q12809); assay: Inhibition of human ERG at 40 uM incubated for 2 to 3 hrs by ligand binding assay
Sequence of hERG (KCNH2) (Q12809 whole entry): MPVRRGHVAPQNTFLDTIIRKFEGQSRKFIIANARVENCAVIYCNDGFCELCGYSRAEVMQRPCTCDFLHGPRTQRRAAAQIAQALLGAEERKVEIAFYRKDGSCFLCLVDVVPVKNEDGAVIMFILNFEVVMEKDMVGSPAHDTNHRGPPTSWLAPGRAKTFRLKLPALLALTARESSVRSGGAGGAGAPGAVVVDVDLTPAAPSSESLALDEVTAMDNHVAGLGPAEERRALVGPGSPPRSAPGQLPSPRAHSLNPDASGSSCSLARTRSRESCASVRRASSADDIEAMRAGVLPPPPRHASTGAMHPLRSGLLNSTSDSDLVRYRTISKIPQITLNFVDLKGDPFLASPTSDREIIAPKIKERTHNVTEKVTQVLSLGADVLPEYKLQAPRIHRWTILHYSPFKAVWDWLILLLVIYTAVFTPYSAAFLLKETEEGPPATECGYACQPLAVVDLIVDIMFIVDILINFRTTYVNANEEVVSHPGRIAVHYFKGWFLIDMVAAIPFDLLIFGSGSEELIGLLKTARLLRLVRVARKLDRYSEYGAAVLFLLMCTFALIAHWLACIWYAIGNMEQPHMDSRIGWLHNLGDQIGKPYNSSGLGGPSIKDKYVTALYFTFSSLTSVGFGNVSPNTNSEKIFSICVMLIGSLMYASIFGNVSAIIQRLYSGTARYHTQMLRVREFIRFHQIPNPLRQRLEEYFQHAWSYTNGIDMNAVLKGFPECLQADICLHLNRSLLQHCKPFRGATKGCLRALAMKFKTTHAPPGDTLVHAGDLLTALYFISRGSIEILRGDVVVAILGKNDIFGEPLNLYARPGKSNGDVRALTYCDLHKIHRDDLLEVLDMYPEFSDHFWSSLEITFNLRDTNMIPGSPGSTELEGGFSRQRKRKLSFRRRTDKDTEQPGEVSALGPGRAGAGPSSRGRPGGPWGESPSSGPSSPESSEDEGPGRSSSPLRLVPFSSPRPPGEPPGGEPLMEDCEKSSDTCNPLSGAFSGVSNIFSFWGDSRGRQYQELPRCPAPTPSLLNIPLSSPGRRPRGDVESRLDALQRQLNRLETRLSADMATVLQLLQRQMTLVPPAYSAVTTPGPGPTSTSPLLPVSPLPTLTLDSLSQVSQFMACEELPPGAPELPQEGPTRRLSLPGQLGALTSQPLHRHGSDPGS

CYP2C19 = CYP2C19 (Homo sapiens, UniProt P33261); assay: Inhibition of human recombinant CYP2C19 using amitriptyline […] at 10 uM by fluorometric assay; type: ADME
Sequence of CYP2C19 (P33261 whole entry): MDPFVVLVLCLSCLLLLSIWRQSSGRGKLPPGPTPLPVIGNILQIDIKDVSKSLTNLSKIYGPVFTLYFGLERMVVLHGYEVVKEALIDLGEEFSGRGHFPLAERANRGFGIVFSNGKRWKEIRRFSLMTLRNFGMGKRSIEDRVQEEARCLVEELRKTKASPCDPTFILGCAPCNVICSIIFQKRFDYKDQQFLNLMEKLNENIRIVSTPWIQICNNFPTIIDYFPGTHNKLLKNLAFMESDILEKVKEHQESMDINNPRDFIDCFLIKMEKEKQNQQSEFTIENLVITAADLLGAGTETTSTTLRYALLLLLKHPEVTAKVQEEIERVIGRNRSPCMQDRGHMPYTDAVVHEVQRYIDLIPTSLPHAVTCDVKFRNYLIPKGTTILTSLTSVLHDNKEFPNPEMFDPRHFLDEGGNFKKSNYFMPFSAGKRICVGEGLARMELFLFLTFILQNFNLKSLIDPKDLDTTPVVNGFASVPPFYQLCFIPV

CYP1A2 = target: T1, CYP1A2 (Homo sapiens, UniProt P05177); assay: Inhibition of human recombinant CYP1A2 using alpha-naphthoflavone […] at 10 uM by fluorometric assay; type: ADME
T1 sequence (P05177 whole entry): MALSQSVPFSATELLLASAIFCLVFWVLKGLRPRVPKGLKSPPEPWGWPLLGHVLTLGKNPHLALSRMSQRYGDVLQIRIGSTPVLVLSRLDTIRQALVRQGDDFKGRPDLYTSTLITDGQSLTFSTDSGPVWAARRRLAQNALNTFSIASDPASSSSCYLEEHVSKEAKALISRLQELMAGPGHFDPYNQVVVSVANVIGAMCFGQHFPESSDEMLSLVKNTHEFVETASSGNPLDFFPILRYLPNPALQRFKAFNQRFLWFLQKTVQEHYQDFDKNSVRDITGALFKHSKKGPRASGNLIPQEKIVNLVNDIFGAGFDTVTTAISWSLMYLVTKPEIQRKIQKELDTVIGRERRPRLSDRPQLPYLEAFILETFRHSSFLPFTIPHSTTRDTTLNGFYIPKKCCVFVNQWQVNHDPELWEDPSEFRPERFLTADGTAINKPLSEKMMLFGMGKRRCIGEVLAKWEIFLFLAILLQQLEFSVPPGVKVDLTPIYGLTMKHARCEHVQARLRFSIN

CYP2D6 = CYP2D6 (Homo sapiens, UniProt P10635); assay: Inhibition of human recombinant CYP2D6 using quinidine […] at 10 uM by fluorometric assay; type: ADME
Sequence of CYP2D6 (P10635 whole entry): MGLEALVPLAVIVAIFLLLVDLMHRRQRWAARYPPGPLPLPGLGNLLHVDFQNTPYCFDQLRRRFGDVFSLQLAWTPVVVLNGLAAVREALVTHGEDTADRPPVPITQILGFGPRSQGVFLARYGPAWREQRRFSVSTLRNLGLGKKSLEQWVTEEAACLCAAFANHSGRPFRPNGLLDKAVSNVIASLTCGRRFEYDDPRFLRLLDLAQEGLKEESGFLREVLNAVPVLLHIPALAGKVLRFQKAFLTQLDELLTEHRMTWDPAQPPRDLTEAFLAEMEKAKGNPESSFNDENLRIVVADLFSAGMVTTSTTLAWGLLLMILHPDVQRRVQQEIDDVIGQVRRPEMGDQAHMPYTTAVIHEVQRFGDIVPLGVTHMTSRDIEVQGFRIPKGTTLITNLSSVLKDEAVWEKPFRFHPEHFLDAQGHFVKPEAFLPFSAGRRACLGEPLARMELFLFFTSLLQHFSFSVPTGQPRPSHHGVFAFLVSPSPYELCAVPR

CYP3A4 = CYP3A4 (Homo sapiens, UniProt P08684); assay: Inhibition of human recombinant CYP3A4 using ketoconazole […] at 10 uM by fluorometric assay; type: ADME
Sequence of CYP3A4 (P08684 whole entry): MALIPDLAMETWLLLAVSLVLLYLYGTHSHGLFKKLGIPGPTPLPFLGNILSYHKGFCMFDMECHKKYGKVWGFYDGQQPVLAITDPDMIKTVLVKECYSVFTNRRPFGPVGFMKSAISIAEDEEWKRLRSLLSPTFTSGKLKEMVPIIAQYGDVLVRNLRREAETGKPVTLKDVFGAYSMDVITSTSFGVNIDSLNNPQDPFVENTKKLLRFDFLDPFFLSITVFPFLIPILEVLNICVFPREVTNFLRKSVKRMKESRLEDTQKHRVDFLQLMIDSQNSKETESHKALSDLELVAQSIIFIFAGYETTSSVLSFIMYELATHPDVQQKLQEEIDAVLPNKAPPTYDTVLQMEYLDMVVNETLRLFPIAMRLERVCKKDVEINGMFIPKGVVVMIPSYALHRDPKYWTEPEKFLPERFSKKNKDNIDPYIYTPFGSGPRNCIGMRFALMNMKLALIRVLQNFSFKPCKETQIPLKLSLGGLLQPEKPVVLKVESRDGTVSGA

Hepatitis B virus [7] = assay: Inhibition of HBV recombinant Cp149 expressed in Escherichia coli BL21 (DE3) assessed as inhibition of capsid assembly at 1 uM incubated for 1 hr by immune blotting analysis relative to control
CYP2C9 = CYP2C9 (Homo sapiens, UniProt P11712); assay: Inhibition of human recombinant CYP2C9 using sulfaphenazole […] at 10 uM by fluorometric assay; type: ADME
Sequence of CYP2C9 (P11712 whole entry): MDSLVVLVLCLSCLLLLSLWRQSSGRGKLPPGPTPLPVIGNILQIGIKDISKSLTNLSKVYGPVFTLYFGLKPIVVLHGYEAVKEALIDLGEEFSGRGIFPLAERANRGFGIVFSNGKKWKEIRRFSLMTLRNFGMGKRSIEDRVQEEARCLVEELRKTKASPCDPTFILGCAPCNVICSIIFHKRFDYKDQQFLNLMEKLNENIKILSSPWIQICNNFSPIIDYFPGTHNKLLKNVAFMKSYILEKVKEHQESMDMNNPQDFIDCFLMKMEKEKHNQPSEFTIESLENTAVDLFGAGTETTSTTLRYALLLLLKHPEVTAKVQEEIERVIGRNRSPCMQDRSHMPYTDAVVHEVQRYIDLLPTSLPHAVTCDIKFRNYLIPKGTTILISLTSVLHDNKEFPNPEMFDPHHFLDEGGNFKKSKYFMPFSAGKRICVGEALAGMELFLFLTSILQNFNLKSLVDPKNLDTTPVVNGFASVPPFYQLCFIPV

Hepatitis B virus [8] = assay: Inhibition of HBV recombinant Cp149 expressed in Escherichia coli BL21 (DE3) assessed as inhibition of capsid assembly at 10 uM incubated for 1 hr by immune blotting analysis relative to control
[9] = Permeability of the compound at pH 7.4 by PAMPA; type: ADME

SMILES | inhibition (Hepatitis B virus [2]) [%] | IC50 (Hepatitis B virus [6]) [nM] | inhibition (Hepatitis B virus [7]) [%] | inhibition (Hepatitis B virus [8]) [%] | also measured
CS(=O)(=O)c1nc(Nc2cc(F)c(F)c(F)c2)cc(N2CCNCC2)n1 | 39 | 203 | 92 | – | remaining at 0.5 h [1]: 99.9%; remaining at 0.5 h [3]: 87.9%; remaining at 0.5 h [4]: 99.8%; Activity [5]: Non-Toxic; inhibition at 40 µM (hERG (KCNH2)): 48.7%; inhibition at 10 µM (CYP2C19): 93.4%; inhibition at 10 µM (CYP1A2): 23.6%; inhibition at 10 µM (CYP2D6): 5.76%; inhibition at 10 µM (CYP3A4): 52.1%; inhibition at 10 µM (CYP2C9): 85.2%
CSc1nc(NCCNC(=O)c2ccc(Cl)nc2Cl)cc(Nc2ccc(N3CCOCC3)cc2)n1 | – | – | – | 5 | –
CSc1nc(NCCNC(=O)c2cccc(Cl)n2)cc(Nc2ccc(N3CCOCC3)cc2)n1 | – | – | – | 0 | –
CSc1nc(NCCNC(=O)c2cccnc2F)cc(Nc2ccc(N3CCOCC3)cc2)n1 | – | – | – | 0 | –
CS(=O)(=O)c1nc(Nc2ccc(F)c(Br)c2)cc(N2CCNCC2)n1 | 13 | 547 | 98 | – | –
COc1ncccc1C(=O)NCCNc1cc(Nc2ccc(F)cc2)nc([S+](C)[O-])n1 (stereo not given) | 32 | 210 | 83 | – | –
COc1ncccc1C(=O)NCCNc1cc(Nc2ccc(F)cc2Cl)nc([S+](C)[O-])n1 (stereo not given) | – | > 10000 | – | 43 | –
COC(=O)C1=C(C)NC(c2ncc(F)cc2F)=N[C@H]1c1ccc(F)cc1Cl | – | 205 | – | 37 | –
CS(=O)(=O)c1nc(Nc2cc(F)c(F)c(F)c2)cc(Nc2cc(F)c(F)c(F)c2)n1 | – | 1020 | – | 69 | remaining at 0.5 h [1]: 99.9%; remaining at 0.5 h [3]: 99.9%; remaining at 0.5 h [4]: 99.9%
COc1cncc(C(=O)NCCNc2cc(Nc3ccc(N4CCOCC4)cc3)nc(SC)n2)c1 | – | 8420 | – | 37 | –
O=C1CC2(CCCC2)CC(=O)N1CCCCN1CCN(c2ncccn2)CC1 [BUSPIRONE] | – | – | – | – | remaining at 0.5 h [1]: 2.44%; remaining at 0.5 h [3]: 0.528%; remaining at 0.5 h [4]: 0.906%
COc1ncccc1C(=O)NCCNc1cc(Nc2ccccc2)nc([S+](C)[O-])n1 (stereo not given) | 14 | 484 | 83 | – | –
CS(=O)(=O)c1nc(Nc2ccc(F)c(Cl)c2)cc(N2CCNCC2)n1 [listing 1 of 2 here] | 47 | – | 90 | – | –
COc1ncccc1C(=O)NCCNc1cc(Nc2ccc(N3CCOCC3)cc2)nc(S(C)(=O)=O)n1 | 49 | 198 | 86 | – | –
C[S+]([O-])c1nc(NCCNC(=O)c2cccnc2)cc(Nc2ccc(N3CCOCC3)cc2)n1 (stereo not given) | – | > 10000 | – | 13 | –
CSc1nc(NCCNC(=O)c2cccnc2Cl)cc(Nc2ccc(N3CCOCC3)cc2)n1 | – | – | – | 2 | –
COc1ncccc1C(=O)NCCNc1cc(Nc2ccc(N3CCOCC3)cc2)nc(SC)n1 | – | > 10000 | – | 23 | remaining at 0.5 h [1]: 58.8%; remaining at 0.5 h [3]: 49%; remaining at 0.5 h [4]: 17.8%
CS(=O)(=O)c1nc(Nc2cc(F)c(F)c(F)c2)cc(NC2CCNCC2)n1 | 16 | 190 | 90 | – | remaining at 0.5 h [3]: 98.2%; log(permeability) [9]: <= -6; remaining at 0.5 h [4]: 98.6%

SMILES | inhibition (Hepatitis B virus [2]) [%] | IC50 (Hepatitis B virus [6]) [nM] | inhibition (Hepatitis B virus [7]) [%] | inhibition (Hepatitis B virus [8]) [%] | also measured
CS(=O)(=O)c1nc(Nc2ccc(F)c(Cl)c2)cc(NC2CCNCC2)n1 | 59 | 199 | 95 | – | remaining at 0.5 h [1]: 92.9%; remaining at 0.5 h [3]: 85.1%; log(permeability) [9]: -5.46; remaining at 0.5 h [4]: 93.9%
CSc1nc(NCCNC(=O)c2ncc(F)cc2F)cc(Nc2ccc(N3CCOCC3)cc2)n1 | – | – | – | 1 | –
COc1ncccc1C(=O)NCCNc1cc(Nc2ccc(N3CCOCC3)cc2)nc([S+](C)[O-])n1 (stereo not given) | – | 402 | – | 95 | remaining at 0.5 h [1]: 93.4%; remaining at 0.5 h [3]: 77.1%; log(permeability) [9]: -5.47; remaining at 0.5 h [4]: 80.2%; inhibition at 10 µM (CYP2C19): 40.7%; inhibition at 10 µM (CYP1A2): 18.3%; inhibition at 10 µM (CYP3A4): 51.7%; inhibition at 10 µM (CYP2C9): 42.9%
COc1ncccc1C(=O)NCCNc1cc(Nc2ccc(Br)cc2)nc([S+](C)[O-])n1 (stereo not given) | 27 | 177 | 82 | – | –
CS(=O)(=O)c1nc(Nc2ccc(F)c(Cl)c2)cc(Nc2ccc(F)c(Cl)c2)n1 | – | 587 | – | 57 | remaining at 0.5 h [1]: 99.9%; remaining at 0.5 h [3]: 99.9%; remaining at 0.5 h [4]: 92.9%
CSc1nc(NCCNC(=O)c2cccnc2)cc(Nc2ccc(N3CCOCC3)cc2)n1 | – | > 10000 | – | 43 | –
CCOC(=O)C1=C(CN2CCOCC2)NC(c2nccs2)=N[C@H]1c1ccc(F)cc1Br | 49 | 188 | 93 | – | –
COc1ncccc1C(=O)NCCNc1cc(Nc2ccc(F)c(F)c2)nc([S+](C)[O-])n1 (stereo not given) | – | > 10000 | – | 38 | –
COc1cncc(C(=O)NCCNc2cc(Nc3ccc(N4CCOCC4)cc3)nc([S+](C)[O-])n2)c1 (stereo not given) | 43 | > 10000 | 83 | 78 | –
COc1ncccc1C(=O)NCCNc1cc(Nc2ccc(Cl)cc2)nc([S+](C)[O-])n1 (stereo not given) | 27 | 299 | 80 | – | –
CS(=O)(=O)c1nc(Nc2ccc(F)c(Br)c2)cc(NC2CCNCC2)n1 | 7 | 536 | 97 | – | –
CS(=O)(=O)c1nc(Nc2cc(F)c(F)c(F)c2)cc(NC2CCC(N)CC2)n1 (stereo not given) | 29 | 292 | 96 | – | –
CS(=O)(=O)c1nc(Nc2ccc(F)c(Cl)c2)cc(N2CCNCC2)n1 [listing 2 of 2 here] | – | 189 | – | – | remaining at 0.5 h [1]: > 99%; remaining at 0.5 h [3]: > 99%; log(permeability) [9]: -5.37; remaining at 0.5 h [4]: > 99%; Activity [5]: Non-Toxic; inhibition at 40 µM (hERG (KCNH2)): 14%; inhibition at 10 µM (CYP2C19): 41.2%; inhibition at 10 µM (CYP1A2): 57.4%; inhibition at 10 µM (CYP2D6): 45.2%; inhibition at 10 µM (CYP3A4): 60.2%; inhibition at 10 µM (CYP2C9): 64.8%
CS(=O)(=O)c1nc(Nc2ccc(F)cc2)cc(Nc2ccc(F)cc2)n1 | – | 6400 | – | 49 | remaining at 0.5 h [1]: 42.8%; remaining at 0.5 h [3]: 74.4%; remaining at 0.5 h [4]: 37.7%
COc1ncccc1C(=O)N1CCN(c2cc(Nc3ccc(N4CCOCC4)cc3)nc([S+](C)[O-])n2)CC1 (stereo not given) | – | > 10000 | – | 33 | –
COc1ncccc1C(=O)N1CCN(c2cc(Nc3ccc(N4CCOCC4)cc3)nc(SC)n2)CC1 | – | > 10000 | – | 31 | –
COc1ncccc1C(=O)NCCNc1cc(Nc2ccc(I)cc2)nc([S+](C)[O-])n1 (stereo not given) | – | > 10000 | – | 37 | –
CS(=O)(=O)c1nc(Nc2ccc(F)c(Br)c2)cc(NC2CCC(N)CC2)n1 (stereo not given) | 10 | 480 | 98 | – | –
